Assay results taken from PMC3914206.

How the values were obtained:
[1] = target: T1, selected panels of kinases in HeLa and PC3 cell lysates (Homo sapiens, UniProt Q9NRM7); test: KiNativ chemical proteomics profiling in HeLa and PC3 cell lysates; assay type: binding; settings: 10 uM; proteome HEL; peptide VDTHALYAMkTLR; labeling site Lys1
T1 construct: endogenous in cells; host or cells: HeLa and PC3 cell lysates

[2] = target: T2, selected panels of kinases in HeLa and PC3 cell lysates (Homo sapiens, UniProt Q96BR1); test: as above; assay type: binding; settings: 10 uM; SGK3; peptide FYAVkVLQK; proteome HEL; labeling site Lys1
T2 construct: endogenous in cells; host or cells: HeLa and PC3 cell lysates

[3] = target: T3, selected panels of kinases in HeLa and PC3 cell lysates (Homo sapiens, UniProt P19784); test: as above; assay type: binding; settings: 10 uM; proteome PC3; peptide DVk[…]; labeling site Lys2
T3 construct: endogenous in cells; host or cells: HeLa and PC3 cell lysates

[4] = target: T4, selected panels of kinases in HeLa and PC3 cell lysates (Homo sapiens, UniProt O95835); test: as above; assay type: binding; settings: 10 uM; proteome HEL; peptide ALYATkTLR; labeling site Lys1
T4 construct: endogenous in cells; host or cells: HeLa and PC3 cell lysates

[5] = target: T5, selected panels of kinases in HeLa and PC3 cell lysates (Homo sapiens, UniProt Q13164); test: as above; assay type: binding; settings: for ERK5 target occupancy (KiNativ): 10 μM, HeLa and PC3 cell lysates, only ERK5 exceeded this level; for % Inhibiton, Erk5: 10 uM, proteome HEL, peptide DLk[…], labeling site Lys2
T5 construct: endogenous in cells; host or cells: HeLa and PC3 cell lysates
T5 sequence (Q13164 whole entry): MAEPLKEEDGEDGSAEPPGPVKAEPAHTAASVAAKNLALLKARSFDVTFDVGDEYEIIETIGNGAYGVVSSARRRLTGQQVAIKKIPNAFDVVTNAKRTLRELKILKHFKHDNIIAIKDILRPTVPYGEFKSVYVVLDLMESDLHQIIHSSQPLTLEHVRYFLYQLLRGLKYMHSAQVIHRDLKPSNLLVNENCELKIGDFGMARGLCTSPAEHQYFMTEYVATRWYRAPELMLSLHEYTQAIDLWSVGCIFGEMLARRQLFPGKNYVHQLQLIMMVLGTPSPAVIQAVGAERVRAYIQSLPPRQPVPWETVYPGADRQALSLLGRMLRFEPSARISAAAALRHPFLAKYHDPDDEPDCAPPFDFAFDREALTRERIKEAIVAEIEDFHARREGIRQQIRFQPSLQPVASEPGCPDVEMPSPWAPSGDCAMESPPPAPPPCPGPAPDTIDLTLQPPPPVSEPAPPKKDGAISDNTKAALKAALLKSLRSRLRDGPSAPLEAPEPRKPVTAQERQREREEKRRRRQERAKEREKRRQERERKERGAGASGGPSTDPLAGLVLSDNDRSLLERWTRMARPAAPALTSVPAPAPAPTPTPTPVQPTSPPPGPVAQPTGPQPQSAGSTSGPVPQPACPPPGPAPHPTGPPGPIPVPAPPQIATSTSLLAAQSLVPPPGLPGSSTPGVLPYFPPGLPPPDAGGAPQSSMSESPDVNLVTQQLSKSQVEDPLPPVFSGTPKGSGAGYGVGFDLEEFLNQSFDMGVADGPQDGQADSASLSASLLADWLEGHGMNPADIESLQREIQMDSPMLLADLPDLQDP

[6] = target: T6, selected panels of kinases in HeLa and PC3 cell lysates (Homo sapiens, UniProt Q8TD19); test: as above; assay type: binding; settings: 10 uM
T6 construct: endogenous in cells; host or cells: HeLa and PC3 cell lysates
T6 sequence (Q8TD19 1-979): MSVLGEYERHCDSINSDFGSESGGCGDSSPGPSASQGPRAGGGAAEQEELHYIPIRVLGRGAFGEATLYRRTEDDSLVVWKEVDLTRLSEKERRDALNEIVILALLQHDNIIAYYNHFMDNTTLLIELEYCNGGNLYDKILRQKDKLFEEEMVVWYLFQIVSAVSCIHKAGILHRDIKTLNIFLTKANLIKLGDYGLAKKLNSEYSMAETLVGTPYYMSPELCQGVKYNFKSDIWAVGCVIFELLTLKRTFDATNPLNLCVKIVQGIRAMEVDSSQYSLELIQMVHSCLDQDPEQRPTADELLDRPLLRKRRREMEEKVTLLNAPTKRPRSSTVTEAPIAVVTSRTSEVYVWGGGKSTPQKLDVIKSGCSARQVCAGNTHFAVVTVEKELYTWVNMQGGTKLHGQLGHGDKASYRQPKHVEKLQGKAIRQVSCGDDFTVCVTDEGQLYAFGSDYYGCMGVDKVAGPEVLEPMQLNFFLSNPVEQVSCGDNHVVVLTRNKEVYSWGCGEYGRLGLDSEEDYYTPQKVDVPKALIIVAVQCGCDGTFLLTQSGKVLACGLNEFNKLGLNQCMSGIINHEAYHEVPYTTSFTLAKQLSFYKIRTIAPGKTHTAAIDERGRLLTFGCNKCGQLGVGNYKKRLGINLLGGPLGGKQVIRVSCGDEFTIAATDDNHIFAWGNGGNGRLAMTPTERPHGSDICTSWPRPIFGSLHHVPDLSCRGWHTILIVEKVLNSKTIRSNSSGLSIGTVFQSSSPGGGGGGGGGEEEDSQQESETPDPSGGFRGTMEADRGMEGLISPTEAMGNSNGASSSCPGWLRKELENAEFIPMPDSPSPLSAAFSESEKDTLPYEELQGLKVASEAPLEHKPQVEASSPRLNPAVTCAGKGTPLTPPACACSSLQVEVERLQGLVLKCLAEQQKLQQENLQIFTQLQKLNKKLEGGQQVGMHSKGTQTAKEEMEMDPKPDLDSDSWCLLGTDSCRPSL

[7] = target: T7, selected panels of kinases in HeLa and PC3 cell lysates (Homo sapiens, UniProt Q9UL54); test: as above; assay type: binding; settings: 10 uM; TAO2; peptide DVk[…]; proteome PC3; labeling site Lys2
T7 construct: endogenous in cells; host or cells: HeLa and PC3 cell lysates

[8] = target: T8, selected panels of kinases in HeLa and PC3 cell lysates (Homo sapiens, UniProt Q14164); test: as above; assay type: binding; settings: 10 uM; proteome HEL; peptide SGELVAVk[…]; labeling site Lys1
T8 construct: endogenous in cells; host or cells: HeLa and PC3 cell lysates
T8 sequence (Q14164 whole entry): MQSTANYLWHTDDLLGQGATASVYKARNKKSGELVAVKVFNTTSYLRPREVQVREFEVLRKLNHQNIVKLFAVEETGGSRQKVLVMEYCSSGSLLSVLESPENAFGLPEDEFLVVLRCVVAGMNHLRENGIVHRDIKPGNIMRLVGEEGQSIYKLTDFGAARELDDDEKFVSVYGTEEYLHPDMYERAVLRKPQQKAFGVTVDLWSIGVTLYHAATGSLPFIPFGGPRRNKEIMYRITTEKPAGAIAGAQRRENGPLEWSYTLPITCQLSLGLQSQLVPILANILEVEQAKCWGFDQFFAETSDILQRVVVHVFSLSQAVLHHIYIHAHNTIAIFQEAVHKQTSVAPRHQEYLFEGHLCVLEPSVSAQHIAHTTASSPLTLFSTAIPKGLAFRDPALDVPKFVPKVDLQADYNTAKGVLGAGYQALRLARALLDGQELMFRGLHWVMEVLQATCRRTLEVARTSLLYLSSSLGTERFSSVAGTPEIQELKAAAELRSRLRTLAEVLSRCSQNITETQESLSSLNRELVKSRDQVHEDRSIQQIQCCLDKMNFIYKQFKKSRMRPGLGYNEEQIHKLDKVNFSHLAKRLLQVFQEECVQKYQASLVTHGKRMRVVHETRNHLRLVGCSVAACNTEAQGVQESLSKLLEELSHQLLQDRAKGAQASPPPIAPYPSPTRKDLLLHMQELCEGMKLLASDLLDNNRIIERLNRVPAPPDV

[9] = target: T9, selected panels of kinases in HeLa and PC3 cell lysates (Homo sapiens, UniProt O75582); test: as above; assay type: binding; settings: 10 uM; proteome HEL; peptide DIk[…]; labeling site Lys2
T9 construct: endogenous in cells; host or cells: HeLa and PC3 cell lysates
T9 sequence (O75582 whole entry): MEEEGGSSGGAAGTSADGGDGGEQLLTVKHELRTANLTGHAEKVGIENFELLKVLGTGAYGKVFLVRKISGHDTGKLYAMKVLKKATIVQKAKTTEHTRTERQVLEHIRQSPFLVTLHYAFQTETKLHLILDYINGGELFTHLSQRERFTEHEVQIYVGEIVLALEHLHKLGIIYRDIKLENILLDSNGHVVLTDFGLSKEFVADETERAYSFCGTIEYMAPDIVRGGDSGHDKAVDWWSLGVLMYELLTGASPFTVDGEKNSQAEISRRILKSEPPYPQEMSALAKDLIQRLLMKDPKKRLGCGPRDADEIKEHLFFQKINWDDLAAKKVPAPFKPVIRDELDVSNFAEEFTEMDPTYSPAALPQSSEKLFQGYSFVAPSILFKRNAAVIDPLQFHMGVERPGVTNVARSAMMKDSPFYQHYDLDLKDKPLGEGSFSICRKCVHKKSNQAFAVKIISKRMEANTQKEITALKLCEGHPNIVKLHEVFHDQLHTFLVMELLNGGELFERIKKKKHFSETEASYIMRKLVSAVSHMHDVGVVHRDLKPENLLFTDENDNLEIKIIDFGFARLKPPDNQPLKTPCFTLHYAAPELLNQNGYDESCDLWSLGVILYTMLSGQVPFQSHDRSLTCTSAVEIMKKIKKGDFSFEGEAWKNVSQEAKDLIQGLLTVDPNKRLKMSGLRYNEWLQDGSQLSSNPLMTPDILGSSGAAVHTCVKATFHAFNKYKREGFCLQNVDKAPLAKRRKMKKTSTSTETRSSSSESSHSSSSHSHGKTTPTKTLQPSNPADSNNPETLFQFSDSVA

[10] = target: T10, selected panels of kinases in HeLa and PC3 cell lysates (Homo sapiens, UniProt P48736); test: as above; assay type: binding; settings: 10 uM; PIK3CG; peptide KkPLWLEFK; proteome HEL; labeling site ATP
T10 construct: endogenous in cells; host or cells: HeLa and PC3 cell lysates
T10 sequence (P48736 whole entry): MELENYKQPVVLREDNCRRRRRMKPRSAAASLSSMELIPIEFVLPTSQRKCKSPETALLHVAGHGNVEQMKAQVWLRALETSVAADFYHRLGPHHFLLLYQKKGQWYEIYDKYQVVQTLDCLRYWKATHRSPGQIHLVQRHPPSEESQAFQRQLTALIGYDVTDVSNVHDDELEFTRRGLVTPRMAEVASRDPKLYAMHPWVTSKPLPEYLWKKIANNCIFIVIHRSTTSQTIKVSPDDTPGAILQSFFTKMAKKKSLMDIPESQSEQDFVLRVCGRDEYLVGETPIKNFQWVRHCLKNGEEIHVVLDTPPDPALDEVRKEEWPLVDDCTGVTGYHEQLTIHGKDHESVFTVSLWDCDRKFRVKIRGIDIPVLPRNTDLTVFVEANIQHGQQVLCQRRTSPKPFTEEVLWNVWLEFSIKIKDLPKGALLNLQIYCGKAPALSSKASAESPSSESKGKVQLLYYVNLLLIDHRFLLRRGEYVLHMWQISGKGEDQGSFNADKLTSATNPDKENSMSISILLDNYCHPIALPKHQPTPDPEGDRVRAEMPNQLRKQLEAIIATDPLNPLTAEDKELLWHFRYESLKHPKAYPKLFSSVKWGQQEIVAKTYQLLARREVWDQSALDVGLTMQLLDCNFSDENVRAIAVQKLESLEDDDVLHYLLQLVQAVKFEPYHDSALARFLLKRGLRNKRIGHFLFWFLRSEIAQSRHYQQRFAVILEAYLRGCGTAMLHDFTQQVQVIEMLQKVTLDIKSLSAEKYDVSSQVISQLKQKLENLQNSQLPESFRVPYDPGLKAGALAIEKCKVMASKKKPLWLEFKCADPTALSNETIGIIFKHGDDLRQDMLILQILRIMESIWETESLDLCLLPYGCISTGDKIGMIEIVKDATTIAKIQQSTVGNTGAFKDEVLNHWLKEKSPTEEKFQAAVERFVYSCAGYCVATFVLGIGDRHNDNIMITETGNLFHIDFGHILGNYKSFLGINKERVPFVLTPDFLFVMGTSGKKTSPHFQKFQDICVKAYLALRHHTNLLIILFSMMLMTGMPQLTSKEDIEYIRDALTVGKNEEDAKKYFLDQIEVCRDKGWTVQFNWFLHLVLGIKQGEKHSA

[11] = target: T11, selected panels of kinases in HeLa and PC3 cell lysates (Homo sapiens, UniProt Q9P2K8); test: as above; assay type: binding; settings: 10 uM
T11 construct: endogenous in cells; host or cells: HeLa and PC3 cell lysates
T11 sequence (Q9P2K8 whole entry): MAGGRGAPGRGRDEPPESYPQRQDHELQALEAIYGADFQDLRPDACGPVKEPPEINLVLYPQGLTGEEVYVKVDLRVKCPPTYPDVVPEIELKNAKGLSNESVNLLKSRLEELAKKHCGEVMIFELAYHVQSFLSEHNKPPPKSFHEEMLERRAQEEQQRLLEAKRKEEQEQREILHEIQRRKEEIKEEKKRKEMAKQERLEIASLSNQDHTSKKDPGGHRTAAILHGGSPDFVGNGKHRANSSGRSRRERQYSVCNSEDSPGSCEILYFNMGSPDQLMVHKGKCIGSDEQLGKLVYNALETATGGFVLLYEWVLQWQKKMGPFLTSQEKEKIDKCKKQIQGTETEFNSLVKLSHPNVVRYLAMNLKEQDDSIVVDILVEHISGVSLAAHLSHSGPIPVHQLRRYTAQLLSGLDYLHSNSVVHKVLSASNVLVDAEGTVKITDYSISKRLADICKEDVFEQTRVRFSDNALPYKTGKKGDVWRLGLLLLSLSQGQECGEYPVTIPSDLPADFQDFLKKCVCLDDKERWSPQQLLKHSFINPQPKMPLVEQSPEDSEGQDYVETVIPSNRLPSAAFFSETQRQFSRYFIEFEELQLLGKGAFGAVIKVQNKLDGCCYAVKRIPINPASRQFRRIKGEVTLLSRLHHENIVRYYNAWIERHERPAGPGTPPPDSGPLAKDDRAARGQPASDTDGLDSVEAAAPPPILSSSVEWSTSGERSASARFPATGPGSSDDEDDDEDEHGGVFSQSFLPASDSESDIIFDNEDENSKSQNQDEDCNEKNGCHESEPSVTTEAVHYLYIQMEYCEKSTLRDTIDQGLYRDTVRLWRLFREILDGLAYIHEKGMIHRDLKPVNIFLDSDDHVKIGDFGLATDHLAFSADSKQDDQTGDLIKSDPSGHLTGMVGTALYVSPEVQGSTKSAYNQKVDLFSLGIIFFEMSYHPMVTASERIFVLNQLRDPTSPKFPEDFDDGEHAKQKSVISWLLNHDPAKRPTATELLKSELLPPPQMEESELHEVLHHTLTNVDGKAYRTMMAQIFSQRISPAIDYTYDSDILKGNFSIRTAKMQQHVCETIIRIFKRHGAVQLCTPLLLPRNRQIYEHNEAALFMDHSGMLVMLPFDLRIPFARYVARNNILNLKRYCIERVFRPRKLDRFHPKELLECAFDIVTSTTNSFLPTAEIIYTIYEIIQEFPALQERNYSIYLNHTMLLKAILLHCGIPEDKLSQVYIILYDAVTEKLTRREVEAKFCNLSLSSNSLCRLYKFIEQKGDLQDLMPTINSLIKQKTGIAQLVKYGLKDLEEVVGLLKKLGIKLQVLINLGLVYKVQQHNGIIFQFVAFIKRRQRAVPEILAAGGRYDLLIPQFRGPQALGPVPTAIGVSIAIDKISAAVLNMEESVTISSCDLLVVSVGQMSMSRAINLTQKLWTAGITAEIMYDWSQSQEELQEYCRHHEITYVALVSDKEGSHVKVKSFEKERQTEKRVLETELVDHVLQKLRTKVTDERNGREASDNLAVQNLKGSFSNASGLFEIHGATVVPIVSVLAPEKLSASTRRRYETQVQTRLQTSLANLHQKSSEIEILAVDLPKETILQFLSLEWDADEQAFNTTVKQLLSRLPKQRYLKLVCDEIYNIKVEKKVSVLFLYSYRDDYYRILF

[12] = target: T12, selected panels of kinases in HeLa and PC3 cell lysates (Homo sapiens, UniProt O75385); test: as above; assay type: binding; settings: 10 uM; ULK1; peptide DLk[…]; proteome HEL; labeling site Lys2
T12 construct: endogenous in cells; host or cells: HeLa and PC3 cell lysates

ERK5 = ERK5 (Homo sapiens, UniProt Q13164); test: ERK5 autophosphorylation assay (EGF-stimulated, mobility shift immunoblot); assay type: cell-based; parameters: endogenous in cells; host or cells: HeLa; settings: inhibition of EGF-stimulated autophosphorylation of ERK5 in HeLa cells; read-out: Cellular EC50 (ERK5)
From the text: Proteins from total cell lysates were resolved by 6% sodium dodecyl sulfate (SDS)-poly-acrylamide gel electrophoresis (PAGE), transferred to nitrocellulose membrane, blocked in 5% nonfat milk, and blotted with anti-ERK5 antibody.

[13] = proteome HEL, peptide DIkTLNIFLTK, labeling site Lys2
[14] = proteome HEL, peptide LGDYGLAkK, labeling site Activation Loop
[15] = proteome PC3, peptide DIkTLNIFLTK, labeling site Lys2
[16] = proteome PC3, peptide LGDYGLAkK, labeling site Activation Loop
[17] = proteome HEL, peptide LDGCCYAVkR, labeling site Lys1
[18] = proteome PC3, peptide DLk[…], labeling site Lys2
[19] = proteome PC3, peptide LDGCCYAVkR, labeling site Lys1

CCOc1cc(C(=O)N2CCC(N3CCN(C)CC3)CC2)ccc1Nc1ncc2c(n1)N(C1CCCC1)c1ccccc1C(=O)N2C [Compound 26]
% Inhibiton, LATS2 [1]: 3.2% | % Inhibition SGK3 [2]: 25.5% | % Inhibiton, CK2a2 [3]: 8% | % Inhibiton, LATS1 [4]: 6.8% | ERK5 target occupancy (KiNativ) [5]: higher than 90% | % Inhibiton, Erk5 [5]: 94.3% | % Inhibiton, NEK9 [6, 13]: 7.6% | % Inhibiton, NEK9 [6, 14]: -3% | % Inhibiton, NEK9 [6, 15]: -4.7% | % Inhibiton, NEK9 [6, 16]: 6.4% | % Inhibition TAO2 [7]: 7.2% | % Inhibiton, IKKe [8]: 8.6% | % Inhibiton, MSK1 domain1 [9]: ~70.5% | % Inhibition PIK3CG [10]: 45.3% | % Inhibiton, GCN2 [11, 17]: -6.3% | % Inhibiton, GCN2 [11, 18]: 1.6% | % Inhibiton, GCN2 [11, 19]: 6.4% | % Inhibition ULK1 [12]: -5.1%

COc1cc(C(=O)N2CCC(N3CCN(C)CC3)CC2)ccc1Nc1ncc2c(n1)N1CCc3cccc(c31)C(=O)N2C [Compound 24]
EC50 (ERK5): 260 ± 40 nM

COc1cc(C(=O)N2CCC(N3CCN(C)CC3)CC2)ccc1Nc1ncc2c(n1)N(C1CCCC1)c1ccccc1C(=O)N2C [Compound 25, 11-cyclopentyl-2-((2-methoxy-4-(4-(4-methylpiperazin-1-yl)piperidine-1-carbonyl)phenyl)amino)-5-methyl-5H-benzo[e]pyrimido[5,4-b][1,4]diazepin-6(11H)-one]
% Inhibiton, LATS2 [1]: -4.2% | % Inhibition SGK3 [2]: 8.2% | % Inhibiton, CK2a2 [3]: -14.2% | % Inhibiton, LATS1 [4]: 7.2% | ERK5 target occupancy (KiNativ) [5]: higher than 90% | % Inhibiton, Erk5 [5]: >95% | % Inhibiton, NEK9 [6, 13]: 14.6% | % Inhibiton, NEK9 [6, 14]: 1.9% | % Inhibiton, NEK9 [6, 15]: 1.6% | % Inhibiton, NEK9 [6, 16]: 6.7% | % Inhibition TAO2 [7]: 0.261% | % Inhibiton, IKKe [8]: -20.7% | % Inhibiton, MSK1 domain1 [9]: 26.7% | % Inhibition PIK3CG [10]: 11.8% | % Inhibiton, GCN2 [11, 17]: 4.5% | % Inhibiton, GCN2 [11, 18]: -1.6% | % Inhibiton, GCN2 [11, 19]: -1.5% | % Inhibition ULK1 [12]: 6.4% | EC50 (ERK5): 80 ± 20 nM
